Laboratory results taken from US6489297B1, “Vasoactive intestinal peptide analogs” (Dabur Research Foundation, priority 2000, dated 2002).
Where a SMILES comes first, the peptide text is derived from it. [ ]: non-standard residue; d: D form. dPhe(4-Cl) = N[C@H](Cc1ccc(Cl)cc1)C(=O)O; Dpg = CCCC(N)(CCC)C(=O)O; Aib = CC(C)(N)C(=O)O

Legend:
Format in all cases: cell-based, human
Conditions in all cases: 72 hours
PA-1 (ovary) = assay: MTT cytotoxicity assay, PA-1 cells
Experimental: (§1) The cytotoxic activity of synthesized peptides was tested on […] human tumor cell lines namely PA-1 (ovary), SW620 (colon) HuTu80 (duodenum), L132 (lung), U87MG (glioblastoma), KB (oral), MIAPaCa2(pancreas), A549(non small cell lung) and HT-29(colon). The tumor cells were collected at exponential growth phase and resuspended in medium (1.5×10^6 cells/ml in RPMI 1640 containing 10% FBS). 150 μl of medium was added to the wells of a 96-well tissue culture plate (Nunc, Denmark) followed by 30 μl of cell suspension. The plate was left in incubator (37° C., 5% CO2) overnight. 20 μl of the peptide (100 pM to 1 uM concentration) was added to marked wells of the 96-well plate. Each concentration was plated in triplicates. 20 μl of medium alone was added to control wells while wells without cells served as blanks. A total volume of 200 μl was ensured in each well and plate was left in incubator (37° C., 5% CO2). After 72 hours of incubation an MTT assay was performed and percentage cytotoxicity was calculated with respect to control cells. Following Tables show the maximum cytotoxicity achieved on various cell lines.

SW620 (colon) = assay: MTT cytotoxicity assay, SW620 cells
Experimental: as §1

HuTu80 (duodenum) = assay: MTT cytotoxicity assay, HuTu80 cells
Experimental: as §1

L132 (lung) = assay: MTT cytotoxicity assay, L132 cells
Experimental: as §1

U87MG (glioblastoma) = assay: MTT cytotoxicity assay, U87MG cells
Experimental: as §1

KB (oral) = assay: MTT cytotoxicity assay, KB cells
Experimental: as §1

MIAPaCa2(pancreas) = assay: MTT cytotoxicity assay, MIAPaCa2 cells
Experimental: as §1

[1] = system: A549(non small cell lung); assay: MTT cytotoxicity assay, A549 cells
Experimental: as §1

HT-29(colon) = assay: MTT cytotoxicity assay, HT-29 cells
Experimental: as §1

CC[C@H](C)[C@H](NC(=O)[C@H](CO)NC(=O)[C@H](CC(N)=O)NC(=O)[C@H](CC(C)C)NC(=O)[C@H](Cc1ccc(O)cc1)NC(=O)[C@H](CCCCN)NC(=O)[C@H](CCCCN)NC(=O)[C@@H](NC(=O)[C@H](C)NC(=O)[C@H](CC(C)C)NC(=O)[C@H](CCC(N)=O)NC(=O)[C@H](CCCCN)NC(=O)[C@H](CCCNC(=N)N)NC(=O)[C@H](CC(C)C)NC(=O)[C@H](CCCNC(=N)N)NC(=O)[C@@H](NC(=O)[C@H](Cc1ccc(O)cc1)NC(=O)[C@H](CC(N)=O)NC(=O)[C@H](CC(=O)O)NC(=O)[C@@H](NC(=O)[C@@H](Cc1ccc(Cl)cc1)NC(=O)[C@@H](NC(=O)C(C)(C)NC(=O)[C@H](CC(=O)O)NC(=O)[C@H](CO)NC(=O)[C@@H](N)Cc1c[nH]cn1)C(C)C)[C@@H](C)O)[C@@H](C)O)C(C)C)C(=O)N[C@@H](CC(C)C)C(=O)N[C@@H](CC(N)=O)C(N)=O [SEQ ID NO: 2] (H-HSD[Aib]V[dPhe(4-Cl)]TDNYTRLRKQLAVKKYLNSILN-NH2)
Percentage cytotoxicity (PA-1 (ovary); PA1, 100 pM): 16 ± 3.3%
Percentage cytotoxicity (PA-1 (ovary); PA1, 1 nM): 30.0 ± 6.7%
Percentage cytotoxicity (PA-1 (ovary); PA1, 10 nM): 28.9 ± 5.5%
Percentage cytotoxicity (PA-1 (ovary); PA1, 100 nM): 18.9 ± 4.2%
Percentage cytotoxicity (PA-1 (ovary); PA1, 1 μM): 16.5 ± 3.4%
Percentage cytotoxicity (SW620 (colon); SW620, 100 pM): 16.9 ± 4.5%
Percentage cytotoxicity (SW620 (colon); SW620, 1 nM): 28 ± 6.6%
Percentage cytotoxicity (SW620 (colon); SW620, 10 nM): 30 ± 4.5%
Percentage cytotoxicity (SW620 (colon); SW620, 100 nM): 23 ± 3.8%
Percentage cytotoxicity (SW620 (colon); SW620, 1 μM): 18.5 ± 5.1%
Percentage cytotoxicity (HuTu80 (duodenum); HuTu80, 100 pM): 10 ± 3.5%
Percentage cytotoxicity (HuTu80 (duodenum); HuTu80, 1 nM): 20 ± 5.5%
Percentage cytotoxicity (HuTu80 (duodenum); HuTu80, 10 nM): 18 ± 4.5%
Percentage cytotoxicity (HuTu80 (duodenum); HuTu80, 100 nM): 24 ± 5.6%
Percentage cytotoxicity (HuTu80 (duodenum); HuTu80, 1 μM): 39 ± 4.5%
Percentage cytotoxicity (L132 (lung); L132, 100 pM): 18 ± 2.3%
Percentage cytotoxicity (L132 (lung); L132, 1 nM): 28 ± 4.5%
Percentage cytotoxicity (L132 (lung); L132, 10 nM): 30.9 ± 7.0%
Percentage cytotoxicity (L132 (lung); L132, 100 nM): 18.9 ± 5.0%
Percentage cytotoxicity (L132 (lung); L132, 1 μM): 15.9 ± 7.5%
Percentage cytotoxicity (U87MG (glioblastoma); 100 pM): 10.5 ± 4.5%
Percentage cytotoxicity (U87MG (glioblastoma); 1 nM): 12 ± 7.6%
Percentage cytotoxicity (U87MG (glioblastoma); 10 nM): 28.9 ± 5.6%
Percentage cytotoxicity (U87MG (glioblastoma); 100 nM): 19.0 ± 7.0%
Percentage cytotoxicity (U87MG (glioblastoma); 1 μM): 14 ± 4.5%
Percentage cytotoxicity (KB (oral); 100 pM): 47 ± 8.5%
Percentage cytotoxicity (KB (oral); 1 nM): 42 ± 8.0%
Percentage cytotoxicity (KB (oral); 10 nM): 34 ± 6.0%
Percentage cytotoxicity (KB (oral); 100 nM): 37 ± 5.0%
Percentage cytotoxicity (KB (oral); 1 μM): 43 ± 0.5%
Percentage cytotoxicity (MIAPaCa2(pancreas); MIAPaCa2, 100 pM): 20 ± 6.5%
Percentage cytotoxicity (MIAPaCa2(pancreas); MIAPaCa2, 1 nM): 31 ± 5.0%
Percentage cytotoxicity (MIAPaCa2(pancreas); MIAPaCa2, 10 nM): 35 ± 3.5%
Percentage cytotoxicity (MIAPaCa2(pancreas); MIAPaCa2, 100 nM): 32 ± 4.5%
Percentage cytotoxicity (MIAPaCa2(pancreas); MIAPaCa2, 1 μM): 36 ± 0.5%
Percentage cytotoxicity ([1]; A549, 100 pM): 16 ± 5.5%
Percentage cytotoxicity ([1]; A549, 1 nM): 19 ± 4.5%
Percentage cytotoxicity ([1]; A549, 10 nM): 21 ± 5.5%
Percentage cytotoxicity ([1]; A549, 100 nM): 41 ± 6.0%
Percentage cytotoxicity ([1]; A549, 1 μM): 45 ± 5.5%
Percentage cytotoxicity (HT-29(colon); HT29, 100 pM): 26 ± 5.5%
Percentage cytotoxicity (HT-29(colon); HT29, 1 nM): 25 ± 4.5%
Percentage cytotoxicity (HT-29(colon); HT29, 10 nM): 25 ± 4.5%
Percentage cytotoxicity (HT-29(colon); HT29, 100 nM): 30 ± 5.8%
Percentage cytotoxicity (HT-29(colon); HT29, 1 μM): 38 ± 5.5%

CCCC(CCC)(NC(=O)[C@H](CCC(N)=O)NC(=O)[C@H](CCCCN)NC(=O)[C@H](CCCNC(=N)N)NC(=O)[C@H](CC(C)C)NC(=O)[C@H](CCCNC(=N)N)NC(=O)[C@@H](NC(=O)[C@H](Cc1ccc(O)cc1)NC(=O)[C@H](CC(N)=O)NC(=O)[C@H](CC(=O)O)NC(=O)[C@@H](NC(=O)[C@@H](Cc1ccc(Cl)cc1)NC(=O)[C@@H](NC(=O)C(C)(C)NC(=O)[C@H](CC(=O)O)NC(=O)[C@H](CO)NC(=O)[C@@H](N)Cc1c[nH]cn1)C(C)C)[C@@H](C)O)[C@@H](C)O)C(=O)N[C@@H](C)C(=O)N[C@H](C(=O)N[C@@H](CCCCN)C(=O)N[C@@H](CCCCN)C(=O)N[C@@H](Cc1ccc(O)cc1)C(=O)N[C@@H](CC(C)C)C(=O)N[C@@H](CC(N)=O)C(=O)N[C@@H](CO)C(=O)N[C@H](C(=O)N[C@@H](CC(C)C)C(=O)N[C@@H](CC(N)=O)C(N)=O)[C@@H](C)CC)C(C)C [SEQ ID NO: 10, His-Ser-Asp-Aib-Val-4-Cl-D-Phe-Thr-Asp-Asn-Tyr-Thr-Arg-Leu-Arg-Lys-Gln-Dpg-Ala-Val-Lys-Lys-Tyr-Leu-Asn-Ser-Ile-Leu-Asn-NH2] (H-HSD[Aib]V[dPhe(4-Cl)]TDNYTRLRKQ[Dpg]AVKKYLNSILN-NH2)
Percentage cytotoxicity (PA-1 (ovary); PA1, 100 pM): 28 ± 0.0%
Percentage cytotoxicity (PA-1 (ovary); PA1, 1 nM): 31 ± 6.0%
Percentage cytotoxicity (PA-1 (ovary); PA1, 10 nM): 26 ± 3.0%
Percentage cytotoxicity (PA-1 (ovary); PA1, 100 nM): 25 ± 5.0%
Percentage cytotoxicity (PA-1 (ovary); PA1, 1 μM): 23 ± 6.5%
Percentage cytotoxicity (SW620 (colon); SW620, 100 pM): 17 ± 4.0%
Percentage cytotoxicity (SW620 (colon); SW620, 1 nM): 30 ± 6.5%
Percentage cytotoxicity (SW620 (colon); SW620, 10 nM): 29 ± 5.0%
Percentage cytotoxicity (SW620 (colon); SW620, 100 nM): 24 ± 7.3%
Percentage cytotoxicity (SW620 (colon); SW620, 1 μM): 16 ± 5.5%
Percentage cytotoxicity (HuTu80 (duodenum); HuTu80, 100 pM): 15 ± 7.8%
Percentage cytotoxicity (HuTu80 (duodenum); HuTu80, 1 nM): 31 ± 7.0%
Percentage cytotoxicity (HuTu80 (duodenum); HuTu80, 10 nM): 28 ± 5.0%
Percentage cytotoxicity (HuTu80 (duodenum); HuTu80, 100 nM): 28 ± 8.0%
Percentage cytotoxicity (HuTu80 (duodenum); HuTu80, 1 μM): 16 ± 4.5%
Percentage cytotoxicity (L132 (lung); L132, 100 pM): 15 ± 7.0%
Percentage cytotoxicity (L132 (lung); L132, 1 nM): 28 ± 6.0%
Percentage cytotoxicity (L132 (lung); L132, 10 nM): 31 ± 6.0%
Percentage cytotoxicity (L132 (lung); L132, 100 nM): 29 ± 5.5%
Percentage cytotoxicity (L132 (lung); L132, 1 μM): 17 ± 5.0%
Percentage cytotoxicity (U87MG (glioblastoma); 100 pM): 12 ± 5.0%
Percentage cytotoxicity (U87MG (glioblastoma); 1 nM): 16 ± 7.8%
Percentage cytotoxicity (U87MG (glioblastoma); 10 nM): 30.1 ± 4.0%
Percentage cytotoxicity (U87MG (glioblastoma); 100 nM): 29 ± 7.0%
Percentage cytotoxicity (U87MG (glioblastoma); 1 μM): 29 ± 4.0%
Percentage cytotoxicity (KB (oral); 100 pM): 12 ± 8.0%
Percentage cytotoxicity (KB (oral); 1 nM): 32 ± 7.8%
Percentage cytotoxicity (KB (oral); 10 nM): 26 ± 7.8%
Percentage cytotoxicity (KB (oral); 100 nM): 27 ± 6.0%
Percentage cytotoxicity (KB (oral); 1 μM): 30 ± 5.0%
